{
  "source": "the supplement of paper PMC10307832",
  "test_in_all_cases": "relative viability (nuclei count vs DMSO), 5 days (fraction); higher = more cells survive",
  "key": {"[1]": {"compound": "C/C(=N\\NC(=S)N1CCC1)/C2=CC=CC=N2", "outline": "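Lung cancer cell lines received five library-drug doses (not always all listed) spaced by √10, pinned on vehicle-anchored 1536-well plates after an overnight stay at 37 °C. Five days later, with no medium change, nuclei were Hoechst-stained, imaged at 4× and counted with MetaXpress. Viability is treated-well nuclei relative to vehicle-well nuclei, as a median across plates. Passing plates had control CV below 25% and at least one doubling.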"}, "[2]": {"compound": "C/C(=N\\NC(=S)N1CCC1)/C2=CC=CC=N2 + CC(C)C[C@H](NC(=O)[C@H](Cc1ccccc1)NC(=O)c1cnccn1)B(O)O [Bortezomib] (partner 0.002 µM)", "outline": "(§1)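 Five library-drug doses in √10 steps were combined with a fixed anchor-drug dose, or a single drug was given alone, by pin tool to lung cancer cell lines in 1536-well plates the day after seeding. Nuclei were stained and counted after 5 days. Relative viability is the nuclei count in treated wells over that in vehicle wells, taken as the median of duplicate plates.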"}, "[3]": {"compound": "C/C(=N\\NC(=S)N1CCC1)/C2=CC=CC=N2 + CC1(C)CCC(c2ccc(Cl)cc2)=C(CN2CCN(c3ccc(C(=O)NS(=O)(=O)c4ccc(N[C@H](CCN5CCOCC5)CSc5ccccc5)c(S(=O)(=O)C(F)(F)F)c4)cc3)CC2)C1 [Navitoclax] (partner 0.5 µM)", "outline": "as §1"}, "[4]": {"compound": "C/C(=N\\NC(=S)N1CCC1)/C2=CC=CC=N2 + COc1cc2c(Oc3ccc(NC(=O)C4(C(=O)Nc5ccc(F)cc5)CC4)cc3F)ccnc2cc1OCCCN1CCOCC1 [Foretinib] (partner 0.25 µM)", "outline": "as §1"}, "[5]": {"compound": "C/C(=N\\NC(=S)N1CCC1)/C2=CC=CC=N2 + CS(=O)(=O)CCNCc1ccc(-c2ccc3ncnc(Nc4ccc(OCc5cccc(F)c5)c(Cl)c4)c3c2)o1 [Lapatinib] (partner 2 µM)", "outline": "as §1"}, "[6]": {"compound": "C/C(=N\\NC(=S)N1CCC1)/C2=CC=CC=N2 + CS(=O)(=O)N1CCN(Cc2cc3nc(-c4cccc5[nH]ncc45)nc(N4CCOCC4)c3s2)CC1 [Pictilisib] (partner 1 µM)", "outline": "as §1"}, "[7]": {"compound": "C/C(=N\\NC(=S)N1CCC1)/C2=CC=CC=N2 + C[C@@H](Oc1cc(-c2cnn(C3CCNCC3)c2)cnc1N)c1c(Cl)ccc(F)c1Cl [Crizotinib] (partner 1 µM)", "outline": "as §1"}, "[8]": {"compound": "C/C(=N\\NC(=S)N1CCC1)/C2=CC=CC=N2 + C[C@]1(O)C[C@@H](c2nc(-c3ccc4ccc(-c5ccccc5)nc4c3)c3c(N)nccn32)C1 [Linsitinib] (partner 1 µM)", "outline": "as §1"}, "[9]": {"compound": "C/C(=N\\NC(=S)N1CCC1)/C2=CC=CC=N2 + Cc1nc(NC(=O)N2CCC[C@H]2C(N)=O)sc1-c1ccnc(C(C)(C)C(F)(F)F)c1 [Alpelisib] (partner 2 µM)", "outline": "as §1"}, "[10]": {"compound": "C/C(=N\\NC(=S)N1CCC1)/C2=CC=CC=N2 + O=C(c1cc(Cc2n[nH]c(=O)c3ccccc23)ccc1F)N1CCN(C(=O)C2CC2)CC1 [Olaparib] (partner 8 µM)", "outline": "as §1"}},
  "data": [
    {"cell line": "NCI-H1299", "values": [
      {"measurement": "relative viability", "setting": "[1]; 0.05 µM", "value": 0.1},
      {"measurement": "relative viability", "setting": "[1]; 0.1581 µM", "value": 0.12},
      {"measurement": "relative viability", "setting": "[1]; 0.5 µM", "value": 0.186},
      {"measurement": "relative viability", "setting": "[1]; 1.581 µM", "value": 0.185},
      {"measurement": "relative viability", "setting": "[1]; 5 µM", "value": 0.145},
      {"measurement": "relative viability", "setting": "[2]; first compound 0.05 µM", "value": 0.111},
      {"measurement": "relative viability", "setting": "[2]; first compound 0.1581 µM", "value": 0.155},
      {"measurement": "relative viability", "setting": "[2]; first compound 0.5 µM", "value": 0.206},
      {"measurement": "relative viability", "setting": "[2]; first compound 1.581 µM", "value": 0.209},
      {"measurement": "relative viability", "setting": "[2]; first compound 5 µM", "value": 0.138},
      {"measurement": "relative viability", "setting": "[3]; first compound 0.05 µM", "value": 0.0935},
      {"measurement": "relative viability", "setting": "[3]; first compound 0.1581 µM", "value": 0.128},
      {"measurement": "relative viability", "setting": "[3]; first compound 0.5 µM", "value": 0.17},
      {"measurement": "relative viability", "setting": "[3]; first compound 1.581 µM", "value": 0.178},
      {"measurement": "relative viability", "setting": "[3]; first compound 5 µM", "value": 0.124},
      {"measurement": "relative viability", "setting": "[4]; first compound 0.05 µM", "value": 0.107},
      {"measurement": "relative viability", "setting": "[4]; first compound 0.1581 µM", "value": 0.133},
      {"measurement": "relative viability", "setting": "[4]; first compound 0.5 µM", "value": 0.191},
      {"measurement": "relative viability", "setting": "[4]; first compound 1.581 µM", "value": 0.187},
      {"measurement": "relative viability", "setting": "[4]; first compound 5 µM", "value": 0.117},
      {"measurement": "relative viability", "setting": "[5]; first compound 0.05 µM", "value": 0.192},
      {"measurement": "relative viability", "setting": "[5]; first compound 0.1581 µM", "value": 0.221},
      {"measurement": "relative viability", "setting": "[5]; first compound 0.5 µM", "value": 0.197},
      {"measurement": "relative viability", "setting": "[5]; first compound 1.581 µM", "value": 0.185},
      {"measurement": "relative viability", "setting": "[5]; first compound 5 µM", "value": 0.143},
      {"measurement": "relative viability", "setting": "[6]; first compound 0.05 µM", "value": 0.0583},
      {"measurement": "relative viability", "setting": "[6]; first compound 0.1581 µM", "value": 0.0875},
      {"measurement": "relative viability", "setting": "[6]; first compound 0.5 µM", "value": 0.103},
      {"measurement": "relative viability", "setting": "[6]; first compound 1.581 µM", "value": 0.0673},
      {"measurement": "relative viability", "setting": "[6]; first compound 5 µM", "value": 0.0511},
      {"measurement": "relative viability", "setting": "[7]; first compound 0.05 µM", "value": 0.16},
      {"measurement": "relative viability", "setting": "[7]; first compound 0.1581 µM", "value": 0.16},
      {"measurement": "relative viability", "setting": "[7]; first compound 0.5 µM", "value": 0.191},
      {"measurement": "relative viability", "setting": "[7]; first compound 1.581 µM", "value": 0.19},
      {"measurement": "relative viability", "setting": "[7]; first compound 5 µM", "value": 0.102},
      {"measurement": "relative viability", "setting": "[8]; first compound 0.05 µM", "value": 0.0879},
      {"measurement": "relative viability", "setting": "[8]; first compound 0.1581 µM", "value": 0.112},
      {"measurement": "relative viability", "setting": "[8]; first compound 0.5 µM", "value": 0.133},
      {"measurement": "relative viability", "setting": "[8]; first compound 1.581 µM", "value": 0.152},
      {"measurement": "relative viability", "setting": "[8]; first compound 5 µM", "value": 0.145},
      {"measurement": "relative viability", "setting": "[9]; first compound 0.05 µM", "value": 0.094},
      {"measurement": "relative viability", "setting": "[9]; first compound 0.1581 µM", "value": 0.195},
      {"measurement": "relative viability", "setting": "[9]; first compound 0.5 µM", "value": 0.213},
      {"measurement": "relative viability", "setting": "[9]; first compound 1.581 µM", "value": 0.213},
      {"measurement": "relative viability", "setting": "[9]; first compound 5 µM", "value": 0.15},
      {"measurement": "relative viability", "setting": "[10]; first compound 0.05 µM", "value": 0.111},
      {"measurement": "relative viability", "setting": "[10]; first compound 0.1581 µM", "value": 0.144},
      {"measurement": "relative viability", "setting": "[10]; first compound 0.5 µM", "value": 0.183},
      {"measurement": "relative viability", "setting": "[10]; first compound 1.581 µM", "value": 0.167},
      {"measurement": "relative viability", "setting": "[10]; first compound 5 µM", "value": 0.15}
    ]}
  ]
}
